Patent publication US20210145768A1, “MODULATING IMMUNE RESPONSE VIA TARGETING OF OLFACTORY RECEPTOR ACTIVITY” (La Jolla Institute for Allergy and Immunology, priority 2018, published 2021)

Assays:
Olfr2 = Olfr2 mRNA and protein expression in BMDMs (real time PCR, western blot, flow cytometry); type: cell-based, mouse; conditions: 12 h
Method: Olfr2 expression in BMDMs was investigated. Briefly, bone marrow cells from Apoe^−/− mice were stimulated with MCSF (20 ng/ml) for 7 d to generate BMDMs, which were left untreated or incubated with the Olfr2 agonist octanal (Oct, 10 μM), LPS, (500 ng/mL), or with both for 12 h.
(§1) BMDMs and hMDMs were incubated in culture media for 12 h at 37° C. and 5% CO2 with Oct, (10 μM), LPS (500 ng/mL) alone or combined with Oct (LPS+Oct) and DMSO (0.1%) as a control and lysed with Qiazol (500 μL; Qiagen) Similarly, whole aortas incubated as previously described were transferred into Qiazol (500 μl; Qiagen) and digested with gentleMACS™ Dissociator (Miltenyi).
BMDMs, hMDMs, mouse blood leukocytes and whole mount aortas were incubated in culture medium with Oct, (10 μM), LPS, (500 ng/mL) alone or combined (LPS+Oct) for 12h at 37° C. and 5% CO2. After the incubation aortas were cut into small pieces and digested for cell suspension as previously described^18. […]
For Olfr2 protein detection in BMDMs, cells were incubated in culture medium with Oct, (10 μM), LPS, (500 ng/mL) alone or combined (LPS+Oct) for 12h at 37° C. and 5% CO2. […] Total protein content was quantified using DC Protein Assay (Bio-Rad) and solubilized in a volume ratio of 1:1 with Laemmli Buffer (Bio-Rad). […]

OR6A2 [1] = test: OR6A2 expression in hMDMs (real time PCR, flow cytometry); type: cell-based, human; conditions: LPS + octanal
Method: as §1
(§2) Total RNA was quantified using a nanodrop spectrophotometer (Peqlab) and 500 ng were reverse transcribed into cDNA using Omniscript reverse transcriptase (Qiagen). Real time PCR reactions were performed according to the RT^2 SYBR green gene expression assay protocol (Qiagen). RT2 SYBR Green qPCR master mix and premade RT^2 qPCR Primer Assays for mouse Olfr2, Rtp1, Rtp2, Ccl2, Ccl4, Tnf, Nos2 and Gapdh were used. Similarly, real time PCR analysis of hMDMs samples was performed following the RT^2 SYBR green gene expression assay protocol (Qiagen), applying RT^2 SYBR Green qPCR master mix and premade RT^2 qPCR Primer Assays for human OR6A2, TNF, IL-6, NOS2 and GAPDH. The results were calculated applying the 2^−ΔΔCT method^32 using Gapdh/GAPDH as housekeeping gene.
BMDMs, hMDMs, mouse blood leukocytes and whole mount aortas were incubated in culture medium with Oct, (10 μM), LPS, (500 ng/mL) alone or combined (LPS+Oct) for 12h at 37° C. and 5% CO2. […]

OR6A2 [2] = target: T1, OR6A2 (Homo sapiens, UniProt O95222); test: Pro-inflammatory gene expression and cytokine secretion in hMDMs; type: cell-based; conditions: 12 h
T1 construct: OR6A2 protein surface expression in hMDMs was confirmed by flow cytometry; endogenous in cells; host or cells: human monocyte-derived macrophages from healthy donors (rhM-CSF, 7 d)
T1 sequence (O95222 1-327): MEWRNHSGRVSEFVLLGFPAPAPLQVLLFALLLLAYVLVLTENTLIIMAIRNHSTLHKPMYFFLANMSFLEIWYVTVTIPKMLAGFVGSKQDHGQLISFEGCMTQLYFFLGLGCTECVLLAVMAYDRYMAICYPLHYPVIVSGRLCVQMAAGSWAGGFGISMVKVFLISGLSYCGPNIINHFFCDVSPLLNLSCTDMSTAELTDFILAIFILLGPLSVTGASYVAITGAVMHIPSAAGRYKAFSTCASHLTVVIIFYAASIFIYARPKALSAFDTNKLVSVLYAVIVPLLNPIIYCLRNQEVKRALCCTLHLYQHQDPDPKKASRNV
Method: Peripheral blood mononuclear cells (PBMCs) were isolated from EDTA-venous blood of informed healthy donors (25-50 years old) from La Jolla Institute for Immunology's in-house Normal Blood Donor Program (NBDP), using a Ficoll-Paque (GE Healthcare) standard separation protocol. Human monocytes were enriched from PBMCs by the EasySep™ Human Monocyte Isolation Kit (StemCell) according to the manufacturer's instructions. Enriched monocytes were incubated with culture medium supplemented with 50 ng/ml rhM-CSF at 37° C. and 5% CO2 for 7 days. Differentiated macrophages at day 7 were used for further studies.
as §1
as §2, with “Similarly, real time PCR analysis of hMDMs samples was performed following the RT^2 SYBR green gene expression assay protocol (Qiagen), applying RT^2 SYBR Green qPCR master mix and premade RT^2 qPCR Primer Assays for human OR6A2, TNF, IL-6, NOS2 and GAPDH.” left out
Supernatants of stimulated cells and aortic tissue were analyzed by BD CBA Flex Sets (BD Biosciences) for mouse TNFα, CCL2, CCL4, IL-1β, or human TNF, IL6, and IL-1β according to the manufacturer's protocol. Samples were analyzed with LSR-II (BD Biosciences). Data was acquired with FACSDiva software (BD Biosciences) and analyzed with FCAP array software 3.0 (BD Biosciences).

In the case of CCCCCCCC=O [octanal], the “Olfr2 mRNA and protein expression in BMDMs” value (Olfr2; LPS + octanal combined) is reported as “potentiated”, the “Olfr2 mRNA and protein expression in BMDMs” value (Olfr2; octanal 10 μM) is reported as “enhanced” and the “OR6A2 mRNA expression in hMDMs” value (OR6A2 [1]) is reported as “further augmented”. For the same molecule, the “LPS-induced expression of TNF, IL6 and NOS2 in hMDMs” value (OR6A2 [2]; LPS 500 ng/mL + octanal 10 μM) was “enhanced the LPS-induced expression”, the “secretion of inflammatory molecules (IL6, TNF) in hMDM supernatant” value (OR6A2 [2]; LPS + octanal, cytokine bead array) was “enhanced” and the “mRNA expression of TNF, IL6 and NOS2 in hMDMs” value (OR6A2 [2]; octanal 10 μM) was “induced mRNA expression”.
